The OligoGym collection
Where “and” joins values, the source holds several entries; their conditions need not be identical. Equal values may be shown once. After the bases stand the sugars from the 5' end (letter, count) and the backbone: PS all phosphorothioate, else s phosphorothioate and o phosphodiester by linkage. Methylation of C is not given here. e = 2'-O-(2-methoxyethyl) (MOE); k = constrained ethyl (cEt); d = 2'-deoxy (DNA)

Target: IRF5
Settings: ASO, KARPAS-229, 0.44444 µM

Which target mRNA inhibition does the source give for “GGTTCTTGGACTCTCA (sugars k2 d8 e4 k2, PS)” here?
Its target mRNA inhibition is 25%.

For AGCTTGGTCTTGACCT (sugars k3 d10 k3, PS), which target mRNA inhibition is on record?
Its target mRNA inhibition is 33%.

For “GGTTCTTGGACTCTCA (sugars k2 d9 e3 k2, PS)”, which target mRNA inhibition is on record?
Its target mRNA inhibition is 46%.

For “GTGAGTCTCAAACCAG (sugars k3 d9 k3 e1, PS)”, which target mRNA inhibition is on record?
Its target mRNA inhibition is 23%.

Same assay, conditions: ASO, KARPAS-229, 1.33333 µM

How did the target mRNA inhibition turn out when “GGTTCTTGGACTCTCA (sugars k2 d8 e4 k2, PS)” was run?
The target mRNA inhibition was 51%.

Which target mRNA inhibition does the source give for AGCTTGGTCTTGACCT (sugars k3 d10 k3, PS) here?
Its target mRNA inhibition is 41%.

Which target mRNA inhibition does the source give for “GGTTCTTGGACTCTCA (sugars k2 d9 e3 k2, PS)” here?
The target mRNA inhibition was 64%.

Which target mRNA inhibition does the source give for “GTGAGTCTCAAACCAG (sugars k3 d9 k3 e1, PS)” here?
Its target mRNA inhibition is 39%.

Same assay, conditions: ASO, KARPAS-229, 4 µM

Which target mRNA inhibition does the source give for “ACTGACACAGGCGGAT (sugars kkdddddddddkdkdk, PS)” here?
The target mRNA inhibition was 6%.

How did the target mRNA inhibition turn out when “GGAGTGAGACGAGCAA (sugars kkdddddddddkekek, PS)” was run?
The target mRNA inhibition was 27%.

With GAGACGAGCAAAGGGT (sugars k3 d10 k3, PS) as the sequence, how does the target mRNA inhibition read?
Its target mRNA inhibition is 40%.

For “GATGGTGTTATCTCCG (sugars kkddddddddddkeke, PS)”, which target mRNA inhibition is on record?
The target mRNA inhibition was 0%.

Which target mRNA inhibition does the source give for “GGTGTATTTCCCTGTC (sugars kdddddddddkekeke, PS)” here?
Its target mRNA inhibition is 0%.

With “TTATTTCTGCTCCAGG (sugars kkdddddddddkekek, PS)” as the sequence, how does the target mRNA inhibition read?
Its target mRNA inhibition is 9%.

Which target mRNA inhibition does the source give for “CTTGGTCTTGACCTCC (sugars kkdddddddddkekek, PS)” here?
Its target mRNA inhibition is 3%.

For “GTTCTTGGACTCTCAA (sugars kkddddddddddkeke, PS)”, which target mRNA inhibition is on record?
Its target mRNA inhibition is 27%.

For “ACCACTGTGTACCCCA (sugars kdddddddddkekeke, PS)”, which target mRNA inhibition is on record?
Its target mRNA inhibition is 40%.

For “AGGAAGTGAGTCTCAA (sugars kkddddddddddkeke, PS)”, which target mRNA inhibition is on record?
The target mRNA inhibition was 39%.

With “CGGTCTTTGAGGTCTG (sugars kddddddddddkekek, PS)” as the sequence, how does the target mRNA inhibition read?
The target mRNA inhibition was 68%.

“GGGCACAGCGCAGGTT (sugars kdddddddddkekeke, PS)” was tested. Which target mRNA inhibition did it give?
Its target mRNA inhibition is 33%.

How did the target mRNA inhibition turn out when “AGGAAGTGAGTCTCAA (sugars kekdddddddddeekk, PS)” was run?
Its target mRNA inhibition is 43%.

“GGTTCTTGGACTCTCA (sugars k2 d8 e4 k2, PS)” was tested. Which target mRNA inhibition did it give?
The target mRNA inhibition was 54% and 64%.

For “CCATTCTATGCCTTTT (sugars kkdddddddddkdkdk, PS)”, which target mRNA inhibition is on record?
The target mRNA inhibition was 46%.

Which target mRNA inhibition does the source give for “GGAAGTGAGTCTCAAA (sugars kkdddddddddkekek, PS)” here?
Its target mRNA inhibition is 25%.

For TCTGCAGGGAGTCAGA (sugars k3 d10 k3, PS), which target mRNA inhibition is on record?
Its target mRNA inhibition is 0%.

How did the target mRNA inhibition turn out when “CTTGGTCTTGACCTCC (sugars kkdddddddddkdkdk, PS)” was run?
The target mRNA inhibition was 13%.

For “AGGAGTGAGACGAGCA (sugars kkdddddddddkekek, PS)”, which target mRNA inhibition is on record?
The target mRNA inhibition was 36%.

Which target mRNA inhibition does the source give for CCCAATGCAACATCCA (sugars k3 d10 k3, PS) here?
The target mRNA inhibition was 12%.

GGAGTGAGACGAGCAA (sugars k3 d10 k3, PS) was tested. Which target mRNA inhibition did it give?
The target mRNA inhibition was 37%.

For “CACCACTGTGTACCCC (sugars kdddddddddkekeke, PS)”, which target mRNA inhibition is on record?
The target mRNA inhibition was 0%.

Which target mRNA inhibition does the source give for “ATCACCACTGTGTACC (sugars kkdddddddddkekek, PS)” here?
Its target mRNA inhibition is 0%.

For “CAGGTTCTTGGACTCT (sugars kkkddddddddkekek, PS)”, which target mRNA inhibition is on record?
The target mRNA inhibition was 0%.

How did the target mRNA inhibition turn out when “AGGTTCTTGGACTCTC (sugars k2 d8 e4 k2, PS)” was run?
The target mRNA inhibition was 17%.

With “GAGTCATGGGCTGAGG (sugars kkdddddddddkdkdk, PS)” as the sequence, how does the target mRNA inhibition read?
The target mRNA inhibition was 31%.

How did the target mRNA inhibition turn out when GCTGTCACATCTCCAC (sugars k3 d10 k3, PS) was run?
The target mRNA inhibition was 33%.

With “ACATCTCCACATCAGT (sugars kkddddddddddkeke, PS)” as the sequence, how does the target mRNA inhibition read?
Its target mRNA inhibition is 36%.

TTTGCTCTAAACCATT (sugars k3 d10 k3, PS) was tested. Which target mRNA inhibition did it give?
The target mRNA inhibition was 2%.

With “TCACCACTGTGTACCC (sugars kkddddddddkekekk, PS)” as the sequence, how does the target mRNA inhibition read?
The target mRNA inhibition was 0%.

How did the target mRNA inhibition turn out when “GTTCTTGGACTCTCAA (sugars k2 d8 e4 k2, PS)” was run?
Its target mRNA inhibition is 8%.

For ACATCCATCAATGAGG (sugars k3 d10 k3, PS), which target mRNA inhibition is on record?
Its target mRNA inhibition is 0%.

For “CATTCCATATACACAC (sugars kddddddddddkekek, PS)”, which target mRNA inhibition is on record?
Its target mRNA inhibition is 31%.

Which target mRNA inhibition does the source give for “ATTTCTGCTCCAGGTT (sugars kkddddddddkekekk, PS)” here?
The target mRNA inhibition was 6%.

Which target mRNA inhibition does the source give for “GTTATCTCCGTTCCTGG (sugars kkkdddddddddkeked, PS)” here?
Its target mRNA inhibition is 0%.

For “ACATCTCCACATCAGT (sugars kkddddddddkekekk, PS)”, which target mRNA inhibition is on record?
The target mRNA inhibition was 15%.

TAGTGTCATGGAATTT (sugars k3 d10 k3, PS) was tested. Which target mRNA inhibition did it give?
The target mRNA inhibition was 38%.

Which target mRNA inhibition does the source give for AACCATTCTATGCCTT (sugars k3 d10 k3, PS) here?
The target mRNA inhibition was 33%.

Which target mRNA inhibition does the source give for CACTTGATTCCAATTT (sugars k3 d10 k3, PS) here?
The target mRNA inhibition was 36%.

For “GTGAGTCTCAAACCAG (sugars kdddddddddkekeke, PS)”, which target mRNA inhibition is on record?
The target mRNA inhibition was 0%.

How did the target mRNA inhibition turn out when “GTCTTGACCTCCCGCT (sugars k2 d8 e4 k2, PS)” was run?
The target mRNA inhibition was 34%.

How did the target mRNA inhibition turn out when “GCTTGGTCTTGACCTC (sugars k2 d8 e4 k2, PS)” was run?
Its target mRNA inhibition is 19%.

“GGTTCTTGGACTCTCA (sugars k2 d9 e3 k2, PS)” was tested. Which target mRNA inhibition did it give?
The target mRNA inhibition was 48% and 73%.

With “GGTCTTGACCTCCCGC (sugars kddddddddddkekek, PS)” as the sequence, how does the target mRNA inhibition read?
Its target mRNA inhibition is 37%.

With “CACTGACACAGGCGGA (sugars kekdddddddddeekk, PS)” as the sequence, how does the target mRNA inhibition read?
Its target mRNA inhibition is 0%.

With “AGGTTCTTGGACTCTC (sugars k2 d9 e3 k2, PS)” as the sequence, how does the target mRNA inhibition read?
The target mRNA inhibition was 0%.

For “GCATTCCATATACACA (sugars kdddddddddkekeke, PS)”, which target mRNA inhibition is on record?
Its target mRNA inhibition is 34%.

How did the target mRNA inhibition turn out when “ATGGTGTTATCTCCGT (sugars kdddddddddkekeke, PS)” was run?
Its target mRNA inhibition is 0%.

How did the target mRNA inhibition turn out when “TGCACTGACACAGGCG (sugars k3 d9 k3 e1, PS)” was run?
Its target mRNA inhibition is 0%.

For “TCACCACTGTGTACCC (sugars kkkddddddddkekek, PS)”, which target mRNA inhibition is on record?
The target mRNA inhibition was 0%.

For “AGCTTGGTCTTGACCT (sugars kkddddddddkekekk, PS)”, which target mRNA inhibition is on record?
The target mRNA inhibition was 0%.

Which target mRNA inhibition does the source give for “GTCTTGACCTCCCGCT (sugars kkddddddddkekekk, PS)” here?
Its target mRNA inhibition is 26%.

For “GTGTATTTCCCTGTCT (sugars k2 d8 e4 k2, PS)”, which target mRNA inhibition is on record?
The target mRNA inhibition was 0%.

How did the target mRNA inhibition turn out when “AGCTTGGTCTTGACCT (sugars kkkddddddddkdkdk, PS)” was run?
The target mRNA inhibition was 12%.

Which target mRNA inhibition does the source give for AGACGAGCAAAGGGTG (sugars k3 d10 k3, PS) here?
Its target mRNA inhibition is 35%.

Which target mRNA inhibition does the source give for “GTCTGGCCCTTTTGGA (sugars kkdddddddddkekek, PS)” here?
Its target mRNA inhibition is 0%.

For “CACTGACACAGGCGGA (sugars kkddddddddkekekk, PS)”, which target mRNA inhibition is on record?
Its target mRNA inhibition is 0%.

For “GTGAGTCTCAAACCAG (sugars k3 d9 k3 e1, PS)”, which target mRNA inhibition is on record?
Its target mRNA inhibition is 44% and 50%.

How did the target mRNA inhibition turn out when “GGAAGTGAGTCTCAAA (sugars kkkddddddddkekek, PS)” was run?
Its target mRNA inhibition is 45%.

With “GGTCTGGCCCTTTTGG (sugars kkddddddddddkeke, PS)” as the sequence, how does the target mRNA inhibition read?
Its target mRNA inhibition is 0%.

“GGTCTGGCCCTTTTGG (sugars kddddddddddkekek, PS)” was tested. Which target mRNA inhibition did it give?
The target mRNA inhibition was 0%.

“ATTTCTGCTCCAGGTT (sugars kdddddddddkekeke, PS)” was tested. Which target mRNA inhibition did it give?
Its target mRNA inhibition is 13%.

How did the target mRNA inhibition turn out when “GTTCTTGGACTCTCAA (sugars kkdddddddddkekek, PS)” was run?
Its target mRNA inhibition is 31%.

“ATGAGTCATGGGCTGA (sugars kkdddddddddkekek, PS)” was tested. Which target mRNA inhibition did it give?
Its target mRNA inhibition is 0%.

With “ATCACCACTGTGTACC (sugars kkddddddddkekekk, PS)” as the sequence, how does the target mRNA inhibition read?
The target mRNA inhibition was 0%.

“GCTTGGTCTTGACCTC (sugars kddddddddddkekek, PS)” was tested. Which target mRNA inhibition did it give?
The target mRNA inhibition was 18%.

Which target mRNA inhibition does the source give for “GGTCTTTGAGGTCTGG (sugars k3 d9 k3 e1, PS)” here?
The target mRNA inhibition was 33%.

For “GAGTCATGGGCTGAGG (sugars k2 d9 e3 k2, PS)”, which target mRNA inhibition is on record?
Its target mRNA inhibition is 30%.

How did the target mRNA inhibition turn out when “GGTCTGGCCCTTTTGG (sugars kdddddddddkekeke, PS)” was run?
Its target mRNA inhibition is 0%.

Which target mRNA inhibition does the source give for “ATGAGTCATGGGCTGA (sugars kddddddddddkekek, PS)” here?
The target mRNA inhibition was 0%.

Which target mRNA inhibition does the source give for “CTTGGTCTTGACCTCC (sugars k3 d9 k3 e1, PS)” here?
The target mRNA inhibition was 6%.

Same assay, conditions: ASO, KARPAS-229, 12 µM

With “GGTTCTTGGACTCTCA (sugars k2 d8 e4 k2, PS)” as the sequence, how does the target mRNA inhibition read?
Its target mRNA inhibition is 77%.

For AGCTTGGTCTTGACCT (sugars k3 d10 k3, PS), which target mRNA inhibition is on record?
The target mRNA inhibition was 55%.

For “GGTTCTTGGACTCTCA (sugars k2 d9 e3 k2, PS)”, which target mRNA inhibition is on record?
The target mRNA inhibition was 84%.

“GTGAGTCTCAAACCAG (sugars k3 d9 k3 e1, PS)” was tested. Which target mRNA inhibition did it give?
The target mRNA inhibition was 59%.
